Data from US12415770B2, “Modulators of liver receptor homologue 1 (LRH-1) and uses” (Emory University, priority 2017, dated 2025).

Legend:
[1] = biological target: T1, LRH-1 (Homo sapiens, UniProt O00482); experiment: Luciferase reporter assay (SHP-luc) in HeLa cells transfected with full-length LRH-1; type: cell-based; details: for EC50 (μM) / EC50: HeLa cells, SHP-luc reporter, 24 hours, 0.03-30 μM; for Relative Efficacy: fold increase over baseline (DMSO-treated cells) relative to the fold increase induced by RJW100
T1 construct: The transfected plasmids included full-length LRH-1 in a pCI vector; expressed in transfected cells; host or cells: HeLa
T1 sequence (O00482 whole entry): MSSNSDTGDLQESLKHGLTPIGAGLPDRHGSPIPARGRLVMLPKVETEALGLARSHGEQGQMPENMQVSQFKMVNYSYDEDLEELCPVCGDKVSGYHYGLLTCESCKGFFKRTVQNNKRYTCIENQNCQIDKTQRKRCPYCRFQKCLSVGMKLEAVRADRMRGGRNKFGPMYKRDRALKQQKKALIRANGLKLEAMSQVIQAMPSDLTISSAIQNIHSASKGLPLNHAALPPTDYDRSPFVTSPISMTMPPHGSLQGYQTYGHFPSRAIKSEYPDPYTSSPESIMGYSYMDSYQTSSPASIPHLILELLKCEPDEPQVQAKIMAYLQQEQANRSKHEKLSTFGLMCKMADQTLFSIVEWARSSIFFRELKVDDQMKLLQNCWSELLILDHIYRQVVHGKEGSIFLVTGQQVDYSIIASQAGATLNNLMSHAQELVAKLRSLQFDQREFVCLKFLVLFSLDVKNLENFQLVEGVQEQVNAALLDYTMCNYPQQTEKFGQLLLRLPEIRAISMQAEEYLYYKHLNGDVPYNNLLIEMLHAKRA
Protocol: EC50 and Relative Activity values were calculated from luciferase reporter assays.

[2] = biological target: T2, LRH-1 LBD (Homo sapiens, UniProt O00482); experiment: Thermofluor (DSF) assay, purified LRH-1 LBD-His protein; type: binding; details: for ΔTm at 50 µM: read-out: ΔTm (mean +/− SEM) (° C.)
T2 construct: LRH-1 LBD (residues 299-541) in the pMSC7 vector was expressed in BL21 (DE3) pLysS E. coli; made in house; host or cells: E. coli BL21 (DE3) pLysS
T2 sequence (O00482 299-541): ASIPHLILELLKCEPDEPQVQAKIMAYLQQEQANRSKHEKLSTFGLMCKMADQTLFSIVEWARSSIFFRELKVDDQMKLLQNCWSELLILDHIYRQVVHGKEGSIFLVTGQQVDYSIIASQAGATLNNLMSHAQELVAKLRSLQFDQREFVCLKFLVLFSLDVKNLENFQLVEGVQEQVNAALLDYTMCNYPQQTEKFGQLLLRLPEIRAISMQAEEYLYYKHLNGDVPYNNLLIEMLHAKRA
Protocol: Thermofluor assays—Purified LRH-1 LBD-His protein (0.2 mg/ml) was incubated overnight with 50 μM of each compound at 4° C. The final DMSO concentration in the reactions was 1%. SYPRO orange dye (Invitrogen) was then added at a 1:1000 dilution. Reactions were heated at a rate of 0.5° C. per minute, using a StepOne Plus Real Time PCR System (ThermoFisher). […] Data were analyzed by first subtracting baseline fluorescence (ligands+SYPRO with no protein) and then fitting the curves using the Bolzman equation (GraphPad Prism, v6) to determine the Tm. […]

[3] = 50 μM compound, relative to DLPC-bound LRH-1

C=C(c1ccccc1OC)[C@@]12CC[C@@H](O)C1CC(CCCCCC)=C2c1ccccc1 (mixture of isomers) [Compound 22, (Exo)-5-hexyl-3a-(1-(2-methoxyphenyl)vinyl)-4-phenyl-1,2,3,3a,6,6a-hexahydropentalen-1-ol]
EC50 (μM) [1]: cnc
Relative Efficacy [1]: 0.42
ΔTm at 50 µM [2, 3]: < 1 °C

C=C(c1ccccc1)[C@@]12CC[C@@H](O)C1CC(CCCCCC)=C2c1cc(N)ccc1C (mixture of isomers) [Compound 17g, (Exo)-4-(5-amino-2-methylphenyl)-5-hexyl-3a-(1-phenylvinyl)-1,2,3,3a,6,6a-hexahydropentalen-1-ol]
EC50 [1]: > 30000 nM
Relative Efficacy [1]: 2.7
ΔTm at 50 µM [2, 3]: < 1 °C

C=C(c1ccccc1)C12CCC(O)C1CC(CCCCC(=O)O)=C2c1ccccc1 (stereo not drawn) [Compound 6f, 5-(6-exo-hydroxy-3-phenyl-3a-(1-phenylvinyl)-1,3a,4,5,6,6a-hexahydropentalen-2-yl)pentanoic acid]
EC50 (μM) [1]: cnc
Relative Efficacy [1]: 0.60
ΔTm at 50 µM [2, 3]: 1.3 °C

C=C(c1ccccc1)[C@@]12CC[C@@H](O)[C@@H]1CC(CCCCCCCCCCC(=O)O)=C2c1ccccc1 (relative stereo) [Compound 12f, 11-(6-exo-hydroxy-3-phenyl-3a-(1-phenylvinyl)-1,3a,4,5,6,6a-hexahydropentalen-2-yl)undecanoic acid]
EC50 [1]: 300 nM
Relative Efficacy [1]: 1.74
ΔTm at 50 µM [2, 3]: 2.5 °C

CCCCCCC1=C(c2ccccc2)[C@]2(C(C)c3ccccc3)CC[C@@H](O)C2C1 (stereo partly drawn) [Compound 39-exo, (Endo or Exo)-5-hexyl-4-phenyl-3a-(1-phenylethyl)-1,2,3,3a,6,6a-hexahydropentalen-1-ol]
Relative Efficacy [1]: 0.06
ΔTm at 50 µM [2, 3]: 0.1 °C

((((endo or exo)-5-hexyl-4-phenyl-3a-(1-phenylvinyl)-1, 2, 3, 3a, 6,6a-hexahydropentalen-1-yl)oxy)carbonyl)sulfamic acid [Compound 40-endo]
EC50 [1]: > 30000 nM
LRH-1 activation ([1]; WT LRH-1): increased activation of LRH-1 compared to RJW100
Relative Efficacy [1]: −0.2
ΔTm (mean +/− SEM) (° C.) [2, 3]: 1.95 +/− 0.15 °C
stabilization of LRH-1-ligand complex / Tm shift ([2]; WT LRH-1): greatly stabilized the protein-ligand complex

C=C(c1ccccc1)[C@@]12CC[C@H](OS(C)(=O)=O)C1CC(CCCCCC)=C2c1ccccc1 (stereo partly drawn) [Compound 30-endo, (Endo or Exo) 5-hexyl-4-phenyl-3a-(1-phenylvinyl)-1,2,3,3a,6,6a-hexahydropentalen-1-yl methanesulfonate]
EC50 [1]: 500 nM
Relative Efficacy [1]: 0.72
ΔTm at 50 µM [2, 3]: 3 °C

CCCCCCC1=C(c2ccccc2)[C@]2(C(C)c3ccccc3)CC[C@H](O)C2C1 (stereo partly drawn) [Compound 39-endo, (Endo or Exo)-5-hexyl-4-phenyl-3a-(1-phenylethyl)-1,2,3,3a,6,6a-hexahydropentalen-1-ol]
Relative Efficacy [1]: 0.13
ΔTm at 50 µM [2, 3]: 0.4 °C

C=C(c1ccccc1)[C@@]12CCC(=O)C1CC(CCCCCC)=C2c1ccccc1 (stereo in doubt) [Compound 27, 5-hexyl-4-phenyl-3a-(1-phenylvinyl)-3,3a,6,6a-tetrahydropentalen-1 (2H)-one]
Relative Efficacy [1]: −0.42
ΔTm at 50 µM [2, 3]: < 1 °C

C=C(c1ccccc1)[C@@]12CC[C@@H](O)[C@@H]1CC(CCCCCCCO)=C2c1ccccc1 (relative stereo) [Compound 8e, Exo-5-(7-hydroxyheptyl)-4-phenyl-3a-(1-phenylvinyl)-1,2,3,3a,6,6a-hexahydropentalen-1-ol]
EC50 [1]: 200 nM
Relative Efficacy [1]: 1.26
ΔTm at 50 µM [2, 3]: 3.7 °C

C=C(c1ccccc1)[C@@]12CC[C@H](OC(N)=O)C1CC(CCCCCC)=C2c1ccccc1 (stereo partly drawn) [Compound 29-endo, (Endo or Exo)-5-hexyl-4-phenyl-3a-(1-phenylvinyl)-1,2,3,3a,6,6a-hexahydropentalen-1-yl carbamate]
EC50 (μM) [1]: cnc
Relative Efficacy [1]: 0
ΔTm at 50 µM [2, 3]: 2.8 °C
